# According to PMC11898701, “Evaluating Therapeutic Efficacy of the Vascular Disrupting Agent OXi8007 Against Kidney Cancer in Mice” (Cancers, 2025):
# Columns and labels:
# [1] = tested on: Renca cells; assay: Wound (scratch) assay; assay type: cell-based, mouse; details: ≥ 2.5 µM, over 48 h
# Protocol: Renca cells were plated at a seeding density of approximately 3 × 10^5 cells per well in a 6-well plate and allowed to reach confluency before treatment. A scratch was made with a sterile 10 µL pipette tip in each well before removing the medium and any detached cells. […] Hoechst 33342 was added to each well at a final concentration of 1 µg/mL and incubated for 15 min at 37 °C to stain the cell nuclei. Gen5 version 3.14 software was used for cellular and statistical analysis of the wound closure data.
# [2] = Blood pressure assessment (CODA system); assay type: in vivo, mouse
# Protocol: Blood pressure was measured using a CODA system (Kent Scientific, Torrington, CT, USA) on 5 adult male BALB/c mice. Mice were anesthetized with 2% isoflurane in oxygen at 1 dm^3/min and placed on the CODA IR heating pad with a feedback rectal temperature probe and nosecone to maintain anesthesia. An occlusion cuff and VPR cuff were placed on the tail. The baseline measurement was recorded over 30 min, then OXi8007 (250 mg/kg or 325 mg/kg) was administered IP and the blood pressure measurement resumed for 45 min. As positive and negative controls, hydralazine (1 mg/kg) or saline, respectively, were injected IP.
smiles,measurement,setting,value
COc1ccc2c(C(=O)c3cc(OC)c(OC)c(OC)c3)c(-c3ccc(OC)c(OP(=O)(O)O)c3)[nH]c2c1 [OXi8007],Wound closure,[1],significantly depressed
same,Duration of temporary elevation in blood pressure,[2]; 250 mg/kg IP,less than 20 min
same,Diastolic blood pressure after administration,"[2]; 250 mg/kg IP, 5 male BALB/c mice, baseline 84 ± 2",82 mmHg
same,Mean blood pressure after administration,"[2]; 250 mg/kg IP, 5 male BALB/c mice, baseline 94 ± 2",94 mmHg
same,Systolic blood pressure after administration,"[2]; 250 mg/kg IP, 5 male BALB/c mice, baseline 115 ± 3",117 mmHg
same,Effect on mouse blood pressure,"[2]; 250 mg/kg IP, systolic, diastolic or mean",minimal effect
same,Effect on mouse blood pressure,[2]; 325 mg/kg IP,larger transient change
